One data set has as its system HDAC4. The experiment in a line: qPCR relative gene expression in T24 cells, HDAC4. It counts as cell-based, human. Conditions: 48 h; 2c at 32 µM, 2d at 68 µM; normalized to B2M, 2^−ΔΔCt vs vehicle; mean ± SEM, n = 5. How it is done:
(§1) The T24 cells were cultured as previously mentioned. They were seeded into 6-well plates (2 × 10^5 cells/well) and, after 24 h of incubation, they were treated for 48 h with 2c and 2d (at 32 and 68 µM, respectively). Afterwards, they were washed with phosphate-buffered saline. The cellular lysate was prepared with E.Z.N.A.® RNA-Lock Reagent (Omega Bio-tek, Norcross, GA, USA) to preserve and immediately stabilize the total RNA for the subsequent gene expression assays. The total RNA isolated from the cells using the E.Z.N.A.® HP Total RNA Isolation Kit (Omega Bio-tek) was reverse-transcribed to cDNA using the AffinityScript QPCR cDNA Synthesis Kit (Agilent Technologies, Santa Clara, CA, USA) and 1000 ng of the RNA sample.
(§2) The cDNA synthesized was employed for qPCR using Brilliant III Ultra-Fast SYBR® Green QPCR Master Mix (Agilent Technologies) in a Mx3000P qPCR System (Agilent Technologies), employing a 96-well plate with 20 μL of PCR reaction per well and 10 pmol each of forward and reverse gene-specific primers. Ten genes were analyzed (see Table 4). The relative gene expressions were determined using Beta-2-microglobulin (B2M) as housekeeping, and the delta-delta Ct method (2^−ΔΔCt method) with regard to the vehicle-treated group (i.e., the reference group). Five biological replicates were used from each group (treated and reference group). […]
For orientation: Real-time PCR tracks product formation cycle by cycle.

In another data set the test system is GSTP1. As to the kind of experiment: qPCR relative gene expression in T24 cells, GSTP1. In kind it is cell-based, human. The settings on record: 48 h; 2c at 32 µM, 2d at 68 µM; normalized to B2M, 2^−ΔΔCt vs vehicle; mean ± SEM, n = 5. How it is done:
as §1, §2

The test system of another data set is BCL2. As to the kind of experiment: qPCR relative gene expression in T24 cells, BCL2. The settings on record: 48 h; 2c at 32 µM, 2d at 68 µM; normalized to B2M, 2^−ΔΔCt vs vehicle; mean ± SEM, n = 5. It counts as cell-based, human. How it is done: as §1, §2
In another data set the test system is T24 (bladder) cells. The experiment in a line: MTT cytotoxicity assay, T24. In kind it is cell-based, human. The settings on record: Homo sapiens, 48 h incubation (b12: 72 h), n = 3, read-out: IC50 ± SEM T24. How it is done: (§3) The 3-acyl-2,5-bis(phenylamino)-1,4-benzoquinones 2a–q were evaluated for their in vitro cytotoxic activities against normal human embryonic kidney cells (HEK-293 cells) and two human cancer cell lines (T24 and DU-145 cells) in 72 h drug exposure assays. The cytotoxic activities of the new compounds were measured using conventional microculture tetrazolium reduction assays. The cytotoxic activities are expressed in terms of IC50. Doxorubicin, a clinically used anti-cancer agent, was taken as a positive control.
(§4) Human cancer cell lines T24 (bladder) and DU-145 (prostate), and non-tumor HEK-293 cells were obtained from the American Type Culture Collection (ATCC, Manassas, VA, USA). The cultures were maintained at a density of 1× 10^5 cells/mL and the medium was changed at 48- to 72-h intervals. They were cultured in high-glucose Dulbecco’s modified Eagle medium (Gibco, Grand Island, NY, USA) supplemented with 10% fetal calf serum, penicillin (100 U/mL), and streptomycin (100 μg/mL). All cultures were kept at 37 °C in 95% air/5% CO2 at 100% humidity. Phosphate-buffered saline (PBS) was purchased from Gibco. Cells were incubated at the indicated times at 37 °C, with or without quinones at various concentrations.
(§5) The cytotoxicity of the quinones was assessed by following the reduction of MTT (3-(4,5-Dimethylthiazol-2-yl)-2,5-diphenyltetrazolium bromide) to formazan blue. Cells were seeded into 96-well plates at a density of 10,000 cells/well for 24 h and then incubated for 48 h, with or without the quinone derivatives. Doxorubicin was used as the standard chemotherapeutic agent (positive control). Cells were then washed twice with warm PBS and incubated with MTT (0.5 mg/mL) for 2 hours at 37 °C. Blue formazan crystals were solubilized by adding 100 µL DMSO/well, and the optical density of the coloured solutions was subsequently read at 550 nm. Results are expressed as percentage of MTT reduction, compared to untreated control conditions. The IC50 values were calculated using the GraphPad Prism software (San Diego, CA, USA).
On the technique in general: Tetrazolium assays rely on reduction of a dye to a coloured formazan, in cell work by metabolically active cells.

Data set [1] is described as follows: Half-wave potentials by cyclic voltammetry in acetonitrile. It counts as physicochemical. The settings on record: rt, Pt electrode, vs non-aqueous Ag/Ag+, given as negative of potential; for −E^I 1/2: first one-electron reduction, 0.1 M tetraethylammonium tetrafluoroborate; for −E^II 1/2: second one-electron reduction. How it is done: The members of the 3-acyl-2,5-bis(phenylamino)-1,4-benzoquinone series 2a–q were evaluated for their half-wave potentials (E^I 1/2 and E^II 1/2). They were measured by cyclic voltammetry in acetonitrile at room temperature, using a platinum electrode and 0.1 M tetraethylamoniumtetrafluoroborate as the supporting electrolyte. The voltammograms were run in the potential range from 0.0 to −2.0 V versus non-aqueous Ag/Ag^+.

The test system of a further data set is GSR. The experiment in a line: qPCR relative gene expression in T24 cells, GSR. Conditions: 48 h; 2c at 32 µM, 2d at 68 µM; normalized to B2M, 2^−ΔΔCt vs vehicle; mean ± SEM, n = 5. It counts as cell-based, human. How it is done: as §1, §2
The next data set relates to T24 and DU-145 cells. The experiment in a line: MTT cytotoxicity assay, both cancer cell lines. In kind it is cell-based. The settings on record: Homo sapiens; mean of T24 and DU-145 IC50. How it is done:
as §3, §4, §5

The next data set deals with HRAS. As to the kind of experiment: qPCR relative gene expression in T24 cells, HRAS. In kind it is cell-based, human. The settings on record: 48 h; 2c at 32 µM, 2d at 68 µM; normalized to B2M, 2^−ΔΔCt vs vehicle; mean ± SEM, n = 5. How it is done:
as §1, §2

The subject of the next data set is DU-145 (prostate) cells. As to the kind of experiment: MTT cytotoxicity assay, DU-145. In kind it is cell-based. Conditions: Homo sapiens, 48 h incubation (b12: 72 h), n = 3, read-out: IC50 ± SEM DU-145. How it is done:
as §3, §4, §5

In a further data set the test system is HDAC3. The experiment in a line: qPCR relative gene expression in T24 cells, HDAC3. In kind it is cell-based, human. The settings on record: 48 h; 2c at 32 µM, 2d at 68 µM; normalized to B2M, 2^−ΔΔCt vs vehicle; mean ± SEM, n = 5. How it is done: as §1, §2
The subject of another data set is mTOR. As to the kind of experiment: qPCR relative gene expression in T24 cells, mTOR. It counts as cell-based, human. The settings on record: 48 h; 2c at 32 µM, 2d at 68 µM; normalized to B2M, 2^−ΔΔCt vs vehicle; mean ± SEM, n = 5. How it is done:
as §1, §2

A further data set deals with HEK-293 kidney cells. The experiment in a line: MTT cytotoxicity assay, HEK-293. It counts as cell-based. The settings on record: Homo sapiens, HEK293, non-tumor cells, 48 h incubation (b12: 72 h), n = 3, read-out: IC50 ± SEM HEK-293. How it is done:
as §3, §4, §5

In a further data set the test system is TP53. The experiment in a line: qPCR relative gene expression in T24 cells, TP53. In kind it is cell-based, human. The settings on record: 48 h; 2c at 32 µM, 2d at 68 µM; normalized to B2M, 2^−ΔΔCt vs vehicle; mean ± SEM, n = 5. How it is done:
as §1, §2

A further data set relates to CDC25A. The experiment in a line: qPCR relative gene expression in T24 cells, CDC25A. In kind it is cell-based, human. Conditions: 48 h; 2c at 32 µM, 2d at 68 µM; normalized to B2M, 2^−ΔΔCt vs vehicle; mean ± SEM, n = 5. How it is done:
as §1, §2

For another data set, the system named is leukemia L1210. Further details: method as in PMID 3746824. The settings on record: cited from earlier work.
In data set [2] the test system is human colon adenocarcinoma. The arrangement: method as in PMID 3746824. Conditions: cited from earlier work.

One may read the IC50 as the midpoint of a concentration-inhibition curve.

`CCCCCC(=O)C1=C(Nc2ccccc2)C(=O)C=C(Nc2ccccc2)C1=O` [2c, 3-Hexanoyl-2,5-bis(phenylamino)-1,4-benzoquinone]: in the data set with HDAC4, the Relative Expression Levels in T24 Cells, HDAC4 was found to be 1.08 ± 0.13. In addition, the Relative Expression Levels in T24 Cells, GSTP1 in the data set on GSTP1 was 0.9 ± 0.08. This molecule gave a Relative Expression Levels in T24 Cells, BCL2 in the data set on BCL2 of 1.28 ± 0.15. In addition, the IC50 in the data set with T24 (bladder) cells is 16.3 ± 1.7 µM; with T24 and DU-145 cells, 30.7 µM; in the data set on DU-145 (prostate) cells, 45.2 ± 4.5 µM; in the data set on HEK-293 kidney cells, over 100 µM. In addition, in data set [1], the “−E^I 1/2” value worked out at 570 mV. Further, in data set [1], the “−E^II 1/2” value was found to be 1090 mV. Further, the Relative Expression Levels in T24 Cells, GSR with GSR came to 0.96 ± 0.05. This molecule had a Relative Expression Levels in T24 Cells, HRAS in the data set on HRAS of 1.07 ± 0.13. In the data set with HDAC3, this molecule returned a Relative Expression Levels in T24 Cells, HDAC3 of 1.03 ± 0.15. For the same molecule, the Relative Expression Levels in T24 Cells, mTOR in the data set on mTOR amounted to 0.99 ± 0.13. The same molecule came in with a Relative Expression Levels in T24 Cells, TP53 with TP53 of 1.06 ± 0.11. Further, the Relative Expression Levels in T24 Cells, CDC25A with CDC25A turned out to be 1.54 ± 0.13.
For `CC(C)c1ccc(NC2=C(Cl)C(=O)C(Nc3ccc(C(C)C)cc3)=C(Cl)C2=O)cc1` [B], the “activity against the leukemia L1210 screening in vitro” value in the data set with leukemia L1210 is reported as “active”. Further, the “in vitro inhibitory activity against human colon adenocarcinoma proliferation” value in data set [2] is “good in vitro inhibitory activity”.
Consider `CCCCCCCC(=O)C1=C(Nc2ccccc2)C(=O)C=C(Nc2ccccc2)C1=O` [2d, 3-Octanoyl-2,5-bis(phenylamino)-1,4-benzoquinone], for which the Relative Expression Levels in T24 Cells, HDAC4 with HDAC4 amounted to 1.01 ± 0.02. Moreover, the Relative Expression Levels in T24 Cells, GSTP1 with GSTP1 came out at 1.21 ± 0.04. In addition, the Relative Expression Levels in T24 Cells, BCL2 in the data set with BCL2 stood at 0.8 ± 0.04. Besides, the IC50 in the data set on T24 (bladder) cells was 34 ± 3.7 µM; with T24 and DU-145 cells, 28.7 µM; with DU-145 (prostate) cells it was 23.5 ± 2.1 µM; in the data set on HEK-293 kidney cells, over 100 µM. Also, the “−E^I 1/2” value in [1] was 590 mV. Besides, the “−E^II 1/2” value in data set [1] amounted to 910 mV. For the same molecule, in the data set with GSR, the Relative Expression Levels in T24 Cells, GSR was 1.07 ± 0.04. In the data set with HRAS, this molecule had a Relative Expression Levels in T24 Cells, HRAS of 1.33 ± 0.06. In the data set on HDAC3, this molecule gave a Relative Expression Levels in T24 Cells, HDAC3 of 1.02 ± 0.05. Further, the Relative Expression Levels in T24 Cells, mTOR in the data set on mTOR came to 0.95 ± 0.02. In the data set on TP53, this molecule registered a Relative Expression Levels in T24 Cells, TP53 of 1.01 ± 0.04. The Relative Expression Levels in T24 Cells, CDC25A in the data set with CDC25A came out at 1.07 ± 0.03.

Source of the values: publication PMC6539005, “Half-Wave Potentials and In Vitro Cytotoxic Evaluation of 3-Acylated 2,5-Bis(phenylamino)-1,4-benzoquinones on Cancer Cells” (Molecules, 2019).
